Source: patent publication US20260042764A1, “COMPOSITIONS AND METHODS FOR INHIBITION OF KRAS” (TheRas, Inc., priority 2022, published 2026)

Legend:
[1] = target: T1, Avi-KRAS G12V (1-169) GppNHp/RAF1 RBD-3xFLAG (52-151) (Homo sapiens, UniProt P01116, G12V); test: Raf1-KRAS G12V-GppNHP disruption HTRF assay (Biological Example 1); format: binding
T1 construct: Avi-KRAS G12V (1-169)
In short: (§1)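 Read-out is HTRF signal of the KRAS–RAF1 RBD complex, reported as percentage of activity relative to DMSO (100%). Protein mix and detection reagents each incubated 1 h at room temperature with 700 rpm shaking. Buffer: 50 mM Tris pH 7.5, 100 mM NaCl, 5 mM MgCl2, 0.1% BSA, 0.01% Tween, 10% DMSO.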

[2] = target: T2, Avi-KRAS G12D (1-169) GppNHp/RAF1 RBD-3xFLAG (52-151) (Homo sapiens, UniProt P01116, G12D); test: Raf1-KRAS G12D-GppNHP disruption HTRF assay (Biological Example 1); format: binding
T2 construct: Avi-KRAS G12D (1-169)
T2 sequence (P01116 1-169 isoform P01116-2 G12D): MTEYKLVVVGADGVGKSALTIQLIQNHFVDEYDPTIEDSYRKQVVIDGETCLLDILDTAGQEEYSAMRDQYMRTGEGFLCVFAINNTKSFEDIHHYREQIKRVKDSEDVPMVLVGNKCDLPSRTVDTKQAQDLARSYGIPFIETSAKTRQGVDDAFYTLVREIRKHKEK
In short: as §1

[3] = target: T3, Avi-KRAS G12V (2-169) GTP/RAF1 RBD-3xFLAG (51-131) (Homo sapiens, UniProt P01116, G12V); test: Raf1-KRAS G12V-GTP disruption HTRF assay (Biological Example 3); format: binding; conditions: KRAS G12V, GTP-loaded
T3 construct: Avi-KRAS G12V (2-169)
T3 sequence (P01116 2-169 isoform P01116-2 G12V): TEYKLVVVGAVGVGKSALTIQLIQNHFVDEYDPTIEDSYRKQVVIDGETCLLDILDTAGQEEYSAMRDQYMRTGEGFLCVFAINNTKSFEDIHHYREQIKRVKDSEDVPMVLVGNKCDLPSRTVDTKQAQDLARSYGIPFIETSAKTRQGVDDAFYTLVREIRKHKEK
In short: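 HTRF PPI read-out (ex 320 nm, em 615 nm) after 1 h RT incubation with shaking; data as % activity vs DMSO (100%), IC50 from curve fit. Complex 50 nM, RBD reagent 75 nM; compound 30-0.005 μM, 3-fold.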

[4] = system: GP2d cells (KRAS G12D); test: Cell-based pERK HTRF assay in GP2d cell (Biological Example 2); conditions: GP2d (KRAS G12D) cells
In short: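 Cells grown in DMEM with 10% FBS were exposed to compound for 60 min at 0.25% DMSO, using a 9-point half-log series starting at 1 μM or 100 nM. Lysates were then mixed with d2 and Eu cryptate antibodies for 4–24 h at room temperature, and pERK was read by HTRF.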

[5] = KRAS G12V, GppNHp-loaded, class symbols
[6] = KRAS G12D, GppNHp-loaded, class symbols

T1 sequence (P01116 1-169 isoform P01116-2 G12V): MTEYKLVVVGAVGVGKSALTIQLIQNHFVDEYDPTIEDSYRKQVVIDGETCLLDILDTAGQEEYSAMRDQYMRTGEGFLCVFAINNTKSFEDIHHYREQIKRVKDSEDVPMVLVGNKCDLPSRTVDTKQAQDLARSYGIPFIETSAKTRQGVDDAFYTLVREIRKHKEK

Compound | IC50 ([1]; KRAS G12V-GppNHp/RAF1 RBD HTRF) [nM] | IC50 ([2]; KRAS G12D-GppNHp/RAF1 RBD HTRF) [nM] | IC50 [3] [nM] | IC50 [4] [nM] | IC50 ([4]; pERK HTRF) [nM] | IC50 ([4]; GP2d) [nM] | IC50 ([4]; GP2d, pERK HTRF) [nM] | IC50 [1, 5] [nM] | IC50 [2, 6] [nM] | IC50 ([4]; GP2d, pERK HTRF, class symbols) [nM] | IC50 ([4]; pERK HTRF, class symbols) [nM]
CC(=O)N1CC(N(C)c2nc(OCC34CCCN3CC(F)C4)nc3c(F)c(-c4ccc(F)c5sc(N)c(C#N)c45)c(C(F)(F)F)cc23)CC1C (centres unmarked) [Compound 291] | 100 to 1000 | 100 to 1000 | 100 to 1000 | < 100 | < 100 |  |  |  |  |  | 
CC(=O)N1C[C@H](N(C)c2nc(OC[C@@]34CCCN3C[C@H](F)C4)nc3c(F)c(-c4ccc(F)c5sc(N)c(C#N)c45)c(C(F)(F)F)cc23)C[C@@H]1C [Compound 298] | 100 to 1000 | 100 to 1000 | 100 to 1000 |  |  | < 100 | < 100 |  |  |  | 
CCC(=O)N1CC[C@@H](N(CC)c2nc(OC[C@@]34CCCN3C[C@H](F)C4)nc3c(F)c(-c4ccc(F)c5sc(N)c(C#N)c45)c(C(F)(F)F)cc23)C1 [Compound 327] | 100 to 1000 | 100 to 1000 | 100 to 1000 |  |  | < 100 | < 100 |  |  |  | 
CCN(c1nc(OC[C@@]23CCCN2C[C@H](F)C3)nc2c(F)c(-c3ccc(F)c4sc(N)c(C#N)c34)c(C(F)(F)F)cc12)[C@@H]1CCN(C(=O)C(C)C)C1 [Compound 328] | 100 to 1000 | 100 to 1000 | 1000 to 10000 |  |  | < 100 | < 100 |  |  |  | 
CCN(c1nc(OC[C@@]23CCCN2C[C@H](F)C3)nc2c(F)c(-c3ccc(F)c4sc(N)c(C#N)c34)c(C(F)(F)F)cc12)[C@@H]1CCN(C(=O)C2CC2)C1 [Compound 329] | 100 to 1000 | 100 to 1000 | 100 to 1000 |  |  | < 100 | < 100 |  |  |  | 
CCN(c1nc(OC[C@@]23CCCN2C[C@H](F)C3)nc2c(F)c(-c3ccc(F)c4sc(N)c(C#N)c34)c(C(F)(F)F)cc12)[C@H]1CCN(C(=O)C2CC2)C1 [Compound 331] | 100 to 1000 | < 100 | 100 to 1000 |  |  | < 100 | < 100 |  |  |  | 
CCN(c1nc(OC[C@@]23CCCN2C[C@H](F)C3)nc2c(F)c(-c3ccc(F)c4sc(N)c(C#N)c34)c(C(F)(F)F)cc12)[C@H]1CCN(C(=O)C(C)C)C1 [Compound 332] | 100 to 1000 | < 100 | 100 to 1000 |  |  | < 100 | < 100 |  |  |  | 
CN(C)C(=O)c1cc2n(n1)CCN(c1nc(OC[C@@]34CCCN3C[C@H](F)C4)nc3c(F)c(-c4ccc(F)c5sc(N)c(C#N)c45)c(C(F)(F)F)cc13)C2 [Compound 355] | 100 to 1000 | 100 to 1000 | 100 to 1000 |  |  | < 100 | < 100 |  |  |  | 
[2H]C1([2H])O[C@@H]2C[C@H]1N(c1nc(OC[C@@]34CCCN3C[C@H](F)C4)nc3c(F)c(-c4ccc(F)c5sc(N)c(C#N)c45)c(C(F)(F)F)cc13)C2 [Compound 371] | 100 to 1000 | 100 to 1000 | 1000 to 10000 |  |  | < 100 | < 100 |  |  |  | 
CCN(c1nc(OC[C@@]23CCCN2C[C@H](F)C3)nc2c(F)c(-c3ccc(F)c4sc(N)c(C#N)c34)c(C(F)(F)F)cc12)[C@H]1CCN(C(=O)OC)C1 [Compound 394] | < 100 | < 100 | 100 to 1000 |  |  | < 100 | < 100 |  |  |  | 
CCN(c1nc(OC[C@@]23CCCN2C[C@H](F)C3)nc2c(F)c(-c3ccc(F)c4sc(N)c(C#N)c34)c(C(F)(F)F)cc12)[C@H]1CCN(C(=O)C2CC2(F)F)C1 (some centres unmarked) [Compound 581] |  |  | ≤ 100 |  |  | < 100 |  | < 100 | < 100 | < 100 | 
N#Cc1c(N)sc2c(F)ccc(-c3c(C(F)(F)F)cc4c(N5CCn6nc(C(=O)N7CCOCC7)cc6C5)nc(OCC56CCCN5CC(F)C6)nc4c3F)c12 (centres unmarked) [Compound 646] |  |  | 100 to 1000 |  |  | < 100 |  | < 100 | < 100 | < 100 | 
CCN(c1nc(OC[C@@]23CCCN2C[C@H](F)C3)nc2c(F)c(-c3ccc(F)c4sc(N)c(C#N)c34)c(C(F)(F)F)cc12)[C@H]1CCN(C(=O)C2C[C@@H]2F)C1 (some centres unmarked) [Compound 692] |  |  | ≤ 100 |  |  | < 100 |  | < 100 | < 100 | < 100 | 
N#Cc1c(N)sc2c(F)ccc(-c3c(C(F)(F)F)cc4c(N(C5CC5)[C@H]5CCS(=O)(=O)C5)nc(OC[C@@]56CCCN5C[C@H](F)C6)nc4c3F)c12 [Compound 702] |  |  | > 10000 |  |  | < 100 |  | 1000 to 10000 | 1000 to 10000 | < 100 | 
CCN(c1nc(OC[C@]23CCCN2C[C@H](F)C3)nc2c(F)c(-c3ccc(F)c4sc(N)c(C#N)c34)c(C(F)(F)F)cc12)[C@H]1CCN(C(=O)C(C)C)C1 [Compound 705] |  |  | 100 to 1000 |  |  | < 100 |  | 100 to 1000 | < 100 | < 100 | 
CCN(c1nc(OC[C@@H]2C[C@@H](OC)CN2C)nc2c(F)c(-c3ccc(F)c4sc(N)c(C#N)c34)c(C(F)(F)F)cc12)[C@H]1CCN(C(=O)C(C)C)C1 [Compound 706] |  |  | 1000 to 10000 |  |  | < 100 |  | 100 to 1000 | 100 to 1000 | < 100 | 
CCN(c1nc(OCC23CCCN2CC(F)C3)nc2c(F)c(-c3ccc(F)c4sc(N)c(C#N)c34)c(C(F)(F)F)cc12)C1CC(C)N(C(=O)C2CC2(F)F)C1 (centres unmarked) [Compound 732] |  |  | 100 to 1000 | < 100 |  |  |  | < 100 | < 100 |  | < 100
Cc1c(C(=O)N2CCOCC2)nn2c1CN(c1nc(OCC34CCCN3CC(F)C4)nc3c(F)c(-c4ccc(F)c5sc(N)c(C#N)c45)c(C(F)(F)F)cc13)CC2 (centres unmarked) [Compound 741] |  |  | 100 to 1000 |  |  | < 100 |  | 100 to 1000 | < 100 | < 100 | 
Cc1c(C(=O)N2CCCC2)nn2c1CN(c1nc(OCC34CCCN3CC(F)C4)nc3c(F)c(-c4ccc(F)c5sc(N)c(C#N)c45)c(C(F)(F)F)cc13)CC2 (centres unmarked) [Compound 744] |  |  | 100 to 1000 |  |  | < 100 |  | 100 to 1000 | 100 to 1000 | < 100 | 
